# Measurements as given in ChEMBL document CHEMBL1140598, “A review of anti-infective and anti-inflammatory chalcones” (Eur J Med Chem, 2007).
# Test system: Mycobacterium tuberculosis variant bovis
# Experiment: Antibacterial activity against Mycobacterium bovis
# Assay type: functional
structure (smiles),measurement,value
C=CC(C)(C)c1cc(/C=C/C(=O)c2ccc(O)cc2)c(OC)cc1O [LICOAGROCHACONE A],MIC,≤ 20 µg/mL
